Data on two compounds can be found in article PMC12865225 (Clinical and Translational Science, 2026).

The structures appear in SMILES notation.

One series deals with T1, OATP1B3 (Homo sapiens, UniProt Q9NPD5).
T1 construct: expressed in transfected cells; host or cells: HEK293 (recombinant baculovirus-mediated transduction)
T1 sequence (Q9NPD5 1-702): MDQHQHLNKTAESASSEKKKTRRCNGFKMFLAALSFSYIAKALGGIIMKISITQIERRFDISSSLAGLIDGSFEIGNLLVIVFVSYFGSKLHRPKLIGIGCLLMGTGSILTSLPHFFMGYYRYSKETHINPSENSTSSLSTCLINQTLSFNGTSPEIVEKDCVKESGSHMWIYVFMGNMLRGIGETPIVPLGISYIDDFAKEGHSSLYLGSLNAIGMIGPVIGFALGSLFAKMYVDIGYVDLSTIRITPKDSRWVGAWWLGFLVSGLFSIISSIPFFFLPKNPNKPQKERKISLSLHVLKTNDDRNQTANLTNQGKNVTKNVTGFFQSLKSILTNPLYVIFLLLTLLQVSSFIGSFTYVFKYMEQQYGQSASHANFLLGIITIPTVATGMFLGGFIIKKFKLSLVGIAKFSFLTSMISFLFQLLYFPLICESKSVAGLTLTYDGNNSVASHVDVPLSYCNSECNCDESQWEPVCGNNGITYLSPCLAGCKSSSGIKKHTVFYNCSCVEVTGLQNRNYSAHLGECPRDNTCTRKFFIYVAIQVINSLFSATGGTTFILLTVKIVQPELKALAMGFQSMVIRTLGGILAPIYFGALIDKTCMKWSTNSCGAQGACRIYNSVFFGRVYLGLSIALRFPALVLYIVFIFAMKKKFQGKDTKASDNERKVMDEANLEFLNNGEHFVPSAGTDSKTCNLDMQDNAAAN
Nature of the series: OATP1B3 inhibition with fluorescent substrate 8-Fluo-cAMP in HEK293 cells. The series is classed as cell-based. Conditions: 2.5 µM 8-Fluo-cAMP, 5 min, 30 min preincubation. The protocol:
8- (2- [Fluoresceinyl]aminoethylthio)adenosine- 3', 5'- cyclic monophosphate (8-Fluo-cAMP) was acquired from Biolog Life Science Institute (Bremen, Germany), 4′,5′-dibromofluorescein was acquired from Sigma-Aldrich (St. Louis, MO, USA) and 2′,7′-dichlorofluorescein was acquired from Santa Cruz Biotechnology (Dallas, TX, USA).
Inhibition studies with fluorescent substrates in OATP transduced HEK293 cells The concentrations of fluorescent probe substrates were 1 µM 2′,7′-dichlorofluorescein for OATP1B1, 2.5 µM 8-Fluo-cAMP for OATP1B3 and 1 µM 4′,5′-dibromofluorescein for OATP2B1, and these concentrations were selected to be within or below of previously reported […]
reported linear ranges of transport for these substrate-transporter combinations.1,2,4 8-Fluo-cAMP was dissolved in ultrapure water, while dimethyl sulfoxide (DMSO) was used for all other compounds. […] For the quantification of fluorescent substrates, cells were lysed with 120 µl of lysis solution (1% Triton X-100, 5 mM EDTA, 150 mM sodium chloride and 150 mM TRIC-hydrochloride and adjusted to pH 8 with sodium hydroxide) for 30 min at 300 RPM shaking before transferring 80 µl of samples to a transparent 96-well plate containing 20 µl of 0.5 M sodium hydroxide. […] The plates were measured with a fluorescent plate reader (Varioskan LUX from ThermoFisher Scientific). […]

Series [1] is described as follows: Static model DDI risk evaluation (FDA R values), inhibitor concentrations. Further details: species or system human. Conditions: for I in,max,u maximum unbound plasma inhibitor concentration at liver inlet: 1000 mg oral dose, Fa×Fg 1, ka 0.1/min; for Igut intestinal luminal concentration: dose/250 mL. The protocol: To evaluate potential clinical DDIs for transporters, the FDA R values were calculated according to the FDA In Vitro Drug Interaction Studies guidance. Equation (3) was used to estimate the maximum unbound plasma inhibitor concentration at liver inlet (I in,max) for OATPs, where f u,p is the unbound fraction in plasma, C max is the maximal total concentration in plasma, F a is the fraction absorbed after oral administration, F g is the fraction available after intestinal metabolism, k a is the first‐order absorption rate constant in vivo, dose is the oral dose, Q h is the hepatic blood flow, and R B is the blood‐to‐plasma concentration ratio. (3) Iin,max,u=fu,p×Cmax+Fa×Fg×ka×Dose/Qh×RB
Hepatic blood flow (Q h) was set to 1.620 L/min [31].

For series [2] the following is noted: cited from earlier work; for Cmax: 1000 mg dose, read-out: total C max; for unbound fraction in plasma: static model input.

In general, IC50 refers to the concentration that inhibits the measured activity by half. In the case of `Cc1onc(-c2c(Cl)cccc2Cl)c1C(=O)N[C@@H]1C(=O)N2[C@@H]1SC(C)(C)[C@@H]2C(=O)O` [Dicloxacillin], the 50% inhibitory concentration (IC50) at OATP1B3 amounted to 4.28 µM. Further, in series [1], the “I in,max,u maximum unbound plasma inhibitor concentration at liver inlet” value amounted to 5.51 µM and the “Igut intestinal luminal concentration” value was found to be 8505 µM. The “I max,u maximal unbound plasma concentration at steady state” value in series [1] (C max × f u) was found to be 1.34 µM. For the same compound, in series [2], the Cmax is 67 µM and the “unbound fraction in plasma” value is recorded as 0.02.

`Cc1onc(-c2c(F)cccc2Cl)c1C(=O)N[C@@H]1C(=O)N2[C@@H]1SC(C)(C)[C@@H]2C(=O)O` [Flucloxacillin]: the half-maximal inhibitory concentration (IC50) on OATP1B3 was 46.3 µM. In series [1], the “I in,max,u maximum unbound plasma inhibitor concentration at liver inlet” value stood at 15.7 µM and the “Igut intestinal luminal concentration” value was found to be 8813 µM. Further, in series [2], the Cmax is 46 µM and the “unbound fraction in plasma” value is recorded as 0.06.
